Experimental data from ChEMBL document CHEMBL4339187, “Discovery of a new class of MTH1 inhibitor by X-ray crystallographic screening” (Eur J Med Chem, 2019).
Active and inactive are the calls of the source. No cut-off for these calls is given here.

Tests used:
[1] = biological target: Oxidized purine nucleoside triphosphate hydrolase (Homo sapiens) (UniProt P36639); test: Binding affinity to recombinant C-terminal 6xHis-tagged MTH1 (3 to 156 residues) (unknown origin) expressed in Escherichia coli BL21(DE3) cells assessed as decrease in fluorescence intensity at 1 to 10 uM after 3 mins by tryptophan fluorescence spectroscopy
Escherichia coli = test: Inhibition of Escherichia coli inorganic pyrophosphatase assessed as reduction in orthophosphate formation at 0.3 to 10 uM measured after 40 using pyrophosphate as substrate by malachite green dye based absorbance assay
[2] = biological target: Oxidized purine nucleoside triphosphate hydrolase (Homo sapiens) (UniProt P36639); test: Binding affinity to recombinant C-terminal 6xHis-tagged MTH1 (3 to 156 residues) (unknown origin) expressed in Escherichia coli BL21(DE3) cells assessed as decrease in fluorescence intensity at 1 to 200 uM after 3 mins by tryptophan fluorescence spectroscopy

For `CC(C)=CCc1c(O)cc2oc3cc(O)c(O)c(CC=C(C)C)c3c(=O)c2c1O`, the Activity [1] was “Active”.

With `COc1c(O)cc2oc3cc(O)c(CC=C(C)C)c(O)c3c(=O)c2c1CC=C(C)C` the inhibition (Escherichia coli) was “inactive”.

In the case of `CNc1cc(-c2cccc(Cl)c2Cl)nc(N)n1`, the Activity [1] is reported as “Active”.

With `Nc1nc2c(ncn2[C@H]2C[C@H](O)[C@@H](COP(=O)(O)OP(=O)(O)OP(=O)(O)O)O2)c(=O)[nH]1` the Activity [2] was “Active” and the Activity [1] was “Active”.

For `COc1c(O)cc2oc3cc4c(c(O)c3c(=O)c2c1CC=C(C)C)CCC(C)(C)O4`, the inhibition (Escherichia coli) was “inactive” and the Activity [1] was “Active”.
